The values below are quoted from earlier work in PubChem BioAssay AID1259410 (Chemical Carcinogenesis Research Information System (CCRIS), 2018).

SMILES strings stand for the structures.

The series concerns rodent tumor promotion studies, tumor incidence. The experiment in a line: CCRIS tumor promotion studies.

For `COc1ccc(N)cc1N`, the outcome (Carcinogen: N-BIS(2-HYDROXYPROPYL)NITROSAMINE, 53609-64-6, Doses [Carcinogen]: 210 MG/100 G, ONCE (STUDY DURATION: 20 WK), Doses [Promoter]: 0, 0.5% IN DIET FOR 19 WK (STUDY DURATION: 20 WK), Route [Carcinogen]: INTRAPERITONEAL, Route [Promoter]: ORAL, Species: RAT, Strain/Sex: WISTAR/MALE) is on record as “thyroid gland: carcinoma, adenoma”.

With `COc1cccc(O)c1O`, the outcome (Carcinogen: DIETHYLNITROSAMINE, 55-18-5, N-METHYL-N-NITROSOUREA, 684-93-5, 1,2-DIMETHYLHYDRAZINE, 540-73-8, N-BUTYL-N-(4-HYDRO, Carcinogen: DIETHYLNITROSAMINE, 55-18-5, N-METHYL-N-NITROSOUREA, 684-93-5, 1,2-DIMETHYLHYDRAZINE, 540-73-8, N-BUTYL-N-(4-HYDRO, Doses [Carcinogen]: 100 MG/KG BW DEN ONCE THEN 20 MG/KG BW MNU 1/D FOR 4 D FOLLOWED BY 40 MG/KG BW DMH 1/D FOR 4 D, 0.05% BHBN IN DRINKING W, Doses [Promoter]: 0, 2% IN DIET FOR 24 WK BEGINNING 3 D POST CARCINOGEN TREATMENT (STUDY DURATION: 28 WK), Route [Carcinogen]: INTRAPERITONEAL, INTRAPERITONEAL, SUBCUTANEOUS, ORAL, Route [Carcinogen]: INTRAPERITONEAL, INTRAPERITONEAL, SUBCUTANEOUS, ORAL, Route [Promoter]: ORAL, Species: RAT, Strain/Sex: F344/MALE) is “forestomach: papilloma, squamous cell carcinoma or carcinoma in situ; glandular”.

In the case of `CC(=O)OCC(COC(C)=O)OC(C)=O`, the outcome runs as follows: (Carcinogen: 7,12-Dimethylbenz(a)anthracene, 57-97-6, Doses [Carcinogen]: 100 ug in 100 ul acetone once at 6 wk of age, Doses [Promoter]: 0, 85 mg, daily for 5 d/wk beginning 1 wk after carcinogen administration for 35 wk, study duration 36 wk, Route [Carcinogen]: Dermal, Route [Promoter]: Dermal, Species: Mouse, Strain/Sex: ICR/Female) “skin: none”; (Carcinogen: 7,12-Dimethylbenz(a)anthracene, 57-97-6, Doses [Carcinogen]: 100 ug in 100 ul acetone once at 6 wk of age, Doses [Promoter]: 0, 85 mg, twice daily for 5 d/wk beginning 1 wk after carcinogen administration for 35 wk, study duration 36 wk, Route [Carcinogen]: Dermal, Route [Promoter]: Dermal, Species: Mouse, Strain/Sex: ICR/Female) “skin: none”.

As to `Oc1cc(Cl)c(Cl)cc1Cl`, the outcome (Carcinogen: 7,12-DIMETHYLBENZ(A)ANTHRACENE, Doses [Carcinogen]: TOP, Route [Carcinogen]: DERMAL, Route [Promoter]: DERMAL, Species: MOUSE, Strain/Sex: FEMALE) is on record as “integumentary system (skin)”.

As for `CCCCCC1(CCCCCC(=O)OC23C(OC(C)=O)C(C)C4(O)C(C=C(CO)CC5(O)C(=O)C(C)=CC54)C2C3(C)C)OCC(C)(C)N1[O]` (centres undefined), the outcome (Carcinogen: 7,12-DIMETHYLBENZ[A]ANTHRACENE, 57-97-6, Doses [Carcinogen]: 100 NMOL ONCE, Doses [Promoter]: 0, 20 NMOL 2/WK FOR 24 WK BEGINNING 1 WK POST CARCINOGEN DOSE (STUDY DURATION: 25 WK), Route [Carcinogen]: DERMAL, Route [Promoter]: DERMAL, Species: MOUSE, Strain/Sex: NMRI/FEMALE) was “skin: tumor”.

As for `O=[As](O)(O)O`, the outcome (Carcinogen: 7,12-DIMETHYLBENZ[A]ANTHRACENE [57-97-6], Doses [Carcinogen]: 50 UG 2 X A WK FOR 2 WKS (STUDY DURATION: 25 WKS), Doses [Promoter]: 25 MG/L IN DRINKING WATER FOR 25 WKS, Route [Carcinogen]: DERMAL (SKIN PAINTING), Route [Promoter]: ORAL (DRINKING WATER), Species: MOUSE, Strain/Sex: SWISS NUDE HAIRLESS/MALE) was “skin; papillomas”.

For the molecule `O=c1cc(-c2ccccc2)oc2ccc3ccccc3c12`, the outcome runs as follows: (Carcinogen: (+/-)-TRANS-7,8-DIHYDROBENZO[A]PYRENE-7,8-DIOL, 61443-57-0, Doses [Carcinogen]: 1 UG CO-ADMINISTERED WITH PROMOTER DOSE, Doses [Promoter]: 1 UG INJECTED INTO NEWLY HATCHED SAC-FRY CO-ADMINISTERED WITH CARCINOGEN DOSE (STUDY DURATION: 9 MO), Route [Carcinogen]: INJECTION, Route [Promoter]: INJECTION, Species: FISH, Strain/Sex: RAINBOW TROUT/MALE,FEMALE) “liver: tumor”; (Carcinogen: DIETHYLNITROSAMINE, 55-18-5, Doses [Carcinogen]: 200 MG/KG BW ONCE (STUDY DURATION: 28 WK), Doses [Promoter]: 1% IN DIET FOR 26 WK BEGINNING 2 WK POST LAST CARCINOGEN DOSE, 2/3 PARTIAL HEPATECTOMY PERFORMED AT WEEK 3 (STUDY DURATI, Route [Carcinogen]: INTRAPERITONEAL, Route [Promoter]: ORAL, Species: RAT, Strain/Sex: F344/MALE) “liver: tumor”; (Doses [Carcinogen]: 0.5 PPM AQUEOUS SOLUTION FOR 30 MIN EXPOSURE OF EMBRYOS 21 D AFTER FERTILIZATION, Doses [Promoter]: 0.05% IN DIET FOR 8 WK (STUDY DURATION: 1 YR), Route [Carcinogen]: IMMERSION, Route [Promoter]: ORAL, Species: FISH, Strain/Sex: MT. SHASTA RAINBOW TROUT) “liver: hepatocellular carcinoma or mixed carcinoma or hepatocellular adenoma”.

`O=NO`: the outcome (Carcinogen: 1,2-DIMETHYLHYDRAZINE [540-73-8], Doses [Carcinogen]: 8 MG/KG, Doses [Promoter]: 50, 500 MG, Route [Promoter]: INJECTION, Species: MOUSE, Strain/Sex: (C57B1 X CBA)/MALE) is on record as “liver: hepatocarcinoma, hepatic hemangioendothelioma; kidney: renal adenoma; inc”; the outcome (Carcinogen: Diethyl nitrosamine (DEN), 55-18-5 and dimethylhydrazine (DMH), 30260-66-3, Carcinogen: Diethyl nitrosamine (DEN), 55-18-5 and dimethylhydrazine (DMH), 30260-66-3, Doses [Carcinogen]: DEN, 200 mg/kg once at -3 days, DMH, 40 mg/kg 4 injections between day 0 and wk 2, Doses [Promoter]: 0, 0.1, 0.2% in drinking water from week 2 to 29, study duration 29 wk, Doses [Promoter]: 0, 0.1, 0.2% in drinking water from week 2 to 29, study duration 29 wk, Route [Carcinogen]: Intraperitoneal (DEN) and subcutaneous (DMH), Route [Promoter]: Oral, Species: Rat, Strain/Sex: F344/Du Crj (20/group)) is “liver: hepatocellular adenoma and carcinoma. colon adenoma and carcinoma. incide”; the outcome (Carcinogen: N-METHYL-N'-NITRO-N-NITROSOGUANIDINE, 70-25-7, Doses [Carcinogen]: 150 MG/KG BW IN DMSO:WATER (1:1) ONCE, Doses [Promoter]: 0, 0.3% IN DRINKING WATER BEGINNING 1 WK POST CARCINOGEN DOSE (STUDY DURATION: 52 WK), Route [Carcinogen]: GAVAGE, Route [Promoter]: ORAL, Species: RAT, Strain/Sex: F344/MALE) was “forestomach: papilloma, squamous cell carcinoma”; the outcome (Carcinogen: N-bis(2-hydroxypropyl)nitrosamine (DHPN) (53609-64-6), Doses [Carcinogen]: 0.1% (w/v) in drinking water for 3 wk, then surgery for acid reflux esophagitis, study duration 34 wk, Doses [Promoter]: 0 (basal diet), 0.2% sodium nitrite, 1% ascorbic acid with 0.2% sodium nitrite, study duration 32 wk after first promote, Doses [Promoter]: 0 (basal diet), 0.2% sodium nitrite, 1% ascorbic acid with 0.2% sodium nitrite, study duration 32 wk after first promote, Route [Carcinogen]: Oral, Route [Promoter]: Oral, Species: Rat, Strain/Sex: F344/Male (24/group)) is reported as “esophagus (p1-p4): papilloma; significant only for combined treatment in p4 segm”; the outcome (Carcinogen: N-methyl-N'-nitro-N-nitrosoguanidine (70-25-7), Doses [Carcinogen]: 0.01% in drinking water for 10 wk for initiation of glandular stomach tumors, 100 mg/kg intragastrically after 16 hr st, Doses [Promoter]: 0.05%, 0.1%, or 0.2% in drinking water from wk 11 to end of study in combination with 0.1% or 1.0% vitamin C in diet (, Route [Carcinogen]: Oral and Intragastric, Route [Promoter]: Oral, Species: Rat, Strain/Sex: F344/Male (15/15)/(14/15)(15/15)(15/15)(15/15)(15/15)(14/15)) is “forestomach: papilloma, squamous cell carcinoma increase in incidence and/or sev”; the outcome (Carcinogen: URETHANE, 51-79-6, Doses [Carcinogen]: 0.5 MG/G BW 1/WK FOR 2 WK, Doses [Promoter]: 0, 50 MG/L IN DRINKING WATER FOR THE DURATION OF STUDY BEGINNING 4 WK PRIOR TO CARCINOGEN TREATMENT (STUDY DURATION: 210, Route [Carcinogen]: INTRAPERITONEAL, Route [Promoter]: ORAL, Species: MOUSE, Strain/Sex: A/SNELL/FEMALE) is recorded as “lung: adenoma”. Besides, the outcome (Carcinogen: URETHANE, 51-79-6, Doses [Carcinogen]: 0.5 MG/G BW 1/WK FOR 2 WK, Doses [Promoter]: 0, 50 MG/L IN DRINKING WATER FOR THE DURATION OF STUDY BEGINNING 4 WK PRIOR TO CARCINOGEN TREATMENT (STUDY DURATION: 210, Route [Carcinogen]: INTRAPERITONEAL, Route [Promoter]: ORAL, Species: MOUSE, Strain/Sex: C57BL X CBA/ FEMALE) is “lung: adenoma”; the outcome (Carcinogen: URETHANE, 51-79-6, Doses [Carcinogen]: 0.5 MG/G BW/WK FOR 2 WK, Doses [Promoter]: 0, 50, 500 MG/L IN DRINKING WATER FOR THE DURATION OF STUDY BEGINNING 4 WK PRIOR TO CARCINOGEN TREATMENT (STUDY DURATION, Doses [Promoter]: 0, 50, 500 MG/L IN DRINKING WATER FOR THE DURATION OF STUDY BEGINNING 4 WK PRIOR TO CARCINOGEN TREATMENT (STUDY DURATION, Route [Carcinogen]: INTRAPERITONEAL, Route [Promoter]: ORAL, Species: MOUSE, Strain/Sex: A/SNELL) is listed as “lung: adenoma”; the outcome (Carcinogen: URETHANE, 51-79-6, Doses [Carcinogen]: 0.5 MG/G BW/WK FOR 2 WK, Doses [Promoter]: 0, 50, 500 MG/L IN DRINKING WATER FOR THE DURATION OF STUDY BEGINNING 4 WK PRIOR TO CARCINOGEN TREATMENT (STUDY DURATION, Doses [Promoter]: 0, 50, 500 MG/L IN DRINKING WATER FOR THE DURATION OF STUDY BEGINNING 4 WK PRIOR TO CARCINOGEN TREATMENT (STUDY DURATION, Route [Carcinogen]: INTRAPERITONEAL, Route [Promoter]: ORAL, Species: MOUSE, Strain/Sex: C57BLXCBA) is given as “lung: adenoma”.
